{
  "source": "patent US11986466B2",
  "about": "“Methods of treating solid tumors with CCR2 antagonists” (CHEMOCENTRYX, INC., priority 2018, dated 2024)",
  "key": {"[1]": {"system": "pancreatic ductal adenocarcinoma (PDAC)", "conditions": "orally dosed, phase 1b study; cited from earlier work"}, "[2]": {"system": "CD11b+/F4/80+ macrophages", "experiment": "Flow cytometry of macrophages in ear tumor microenvironment", "format": "in vivo, C57BL/6 mice", "excerpt": "(§1) FIG. 3A-D. Compound 1 specifically targets macrophages, but not neutrophils. (A, B) Macrophages, defined by the CD11b+/F4/80+ cell populations in flow analysis, were presented in either percentage or absolute numbers in ear TME after only two daily doses of Compound 1 (dosages are indicated in the figure, * p<05, ** p<01 vs vehicle control). (C, D) Single cell suspension from the same tissues as in (A) were stained with antibodies for CD11b, F4/80, CCR2, Ly6G, and Ly6C. Cells gated on CD11b were further analyzed to differentiate the subpopulations. Solid circles indicate the cells which are targeted by Compound 1. Dotted circles circles indicate the cells which are not blocked by Compound 1.\n(§2) Flow cytometry for mouse ear tissues, lymph nodes, and spleens. Anti-mouse CD45 (clone 30-F11), CD11b (M1/70), F4/80 (BM8), Ly6G (1A8), Ly6C (HK1.4), IFN-γ (XMG1.2) and CD8 (5H10-1) Abs were purchased from BioLegend (San Diego, CA). Ears or tumor tissues were digested to obtain skin cell suspensions as described, Lymph nodes or spleens were directly minced and filtered through cell strainers with 100 μm micron pores (Thermo Fisher Scientific, Waltham, MA). Red blood cells in the spleen samples were removed by RBC lysis buffer (BioLegend). Intracellular staining was done after incubating cells for 4 h with brefeldin A and PMA/ionomycin as described. Flow cytometry was performed using an Acuri C6 or LSR II (BD Biosciences, San Jose, CA) in conjunction with FlowJo analysis software (Tree Star, San Carlos, CA)."}, "[3]": {"experiment": "Body weight and tolerability after daily oral dosing", "format": "in vivo, mice", "conditions": "20 or 60 mg/kg daily oral", "procedure": "(§3) (A) Mice were orally dosed for Compound 1 daily at a lower concentration (20 mg/kg per day) or a higher concentration (60 mg/kg per day) for consecutive ten days. Plasma concentration of Compound 1 was detected by chemistry analyst 24 hours after the last dosing. (B) The same groups of mice in panel (A) were recorded for body weight before the first and after the last oral administration (n=4 per group). Statistical analysis is performed by two-way ANOVA in GraphPad PRISM (GraphPad Software, San Diego, CA).\n(§4) Compound 1 is an orally-bioavailable CCR2 antagonist. […] For the experimental treatment regimen, we administered Compound 1 daily via oral gavage, starting on the same day of tumor implantation (FIG. 1a). […] Thus, Compound 1 blocked tumor growth in an inflammation and macrophages dependent model of T cell lymphoma."}, "MBL2 tumors [4]": {"system": "MBL2 tumors", "experiment": "MBL2/DNFB mouse ear skin T cell lymphoma model: tumor growth (ear thickness, ear weight)", "format": "in vivo, C57BL/6 mice", "procedure": "Animals and cell lines. Female C57BL/6 mice (6-8 weeks old) were purchased from Charles River (Hollister, CA) and housed in animal facilities at University of California Davis (UCDAVIS), Sacramento, CA All animal experiments were conducted in accordance with the guidelines and approval of the Institutional Animal Care and Usage Committee at UCDAVIS. The MBL2 cell line is an established cell line derived from Moloney MuLV-induced T-cell lymphoma in C57BL/6 mice, in which the gag gene was deleted from the genome in order to lower virus-dependent immunogenicity. MBL2 cells were cultured in DMEM (Invitrogen, Carlsbad, CA) with 10% heat-inactivated FBS.\nEstablishment of MBL2 tumors in mice. The method of establishing mouse ear skin tumors was previously described, Briefly, PBS-washed MBL2 cells (4×10^5 in 20 μl PBS) were injected into the dermal space under the central dorsal surface of the ears and above the cartilage plane using a 28 g needle. Mice were then topically treated one time with DNFB (1-Fluoro-2, 4-dinitrobenzene, 0.5% in a vehicle consisting of 4:1 (v/v) acetone and olive oil, 10 μl/ear) (Sigma, St. Louis, CA) on dorsal ear skins. Tumor growth was assessed for maximum ear thickness using a digital caliper, or by weight for the whole tumor-bearing ears removed from ear baseline. The endpoint determination is based on the allowed maximal ear tumor size, or local erosion and bleeding, which usually occurred within two weeks after implantation.\nTumor treatment by CCR2 antagonist and/or anti-PD1. Small molecule compounds, Compound 1, either in a high concentration (6 mg/ml) or a low concentration (2 mg/ml), as well as vehicle control were all provided by ChemoCentryx (Mountain View, CA) in a lab-ready formulation. In therapeutic application, oral administration through gavage of Compound 1 or vehicle started on the same day of MBL2 cell inoculation, usually two hours apart. Compound 1 was administrated once a day (60 mg/kg for high dose or 20 mg/kg for low dose) for up to two weeks following tumor implantation. […]"}, "CD8+ T cells": {"system": "CD8+ T cells", "experiment": "IHC staining of tumor tissue with CD8a antibody", "format": "in vivo, C57BL/6 mice", "conditions": "two weeks of treatment, dose-dependent, vs untreated and vehicle", "procedure": "(§5) FIG. 7A-E. CD8 T cells are compulsory in CCR2 antagonist-mediated anti-tumor immunity. (A) Tumor tissues were collected from mice euthanized after two weeks of treatment. Groups are as indicated in the graph. IHC staining with CD8a antibody was performed. The numbers of CD8 positive T cells were counted by taking three random images of HPF (high power field) in each section from all four mice per group. (B) Scheme for neutralizing CD8 T cells along with Compound 1 treatment. Neutralizing anti-CD8 or rat-IgG2a was administrated via intraperitoneal injection one day before MBL2 tumor inoculation followed by a second dose after 7 days. Tumor formation was examined in two weeks after the treatment with Compound 1 or vehicle. (C) Mice treated in experiment (B) were euthanized on day 3 for flow analysis of the cervical draining lymph nodes in order to determine the effect of CD8 depletion (three mice per group). (D) Mice were euthanized on day 15 after the two weeks of Compound 1/vehicle treatment with or without CD8 T cell neutralization. Ear thickness is measured for presenting tumor size. (E) Draining lymph nodes are also measured for the lymph node metastasis (n=4).\nH&E and Histoimmunochemistry. […]"}, "[5]": {"system": "neutrophil-like cells (CD11b- and Ly6G-positive cells)", "experiment": "Flow cytometry of neutrophils / neutrophil-like cells in ear tumor microenvironment", "format": "in vivo, C57BL/6 mice", "excerpt": "as §1\n(§6) FIG. 4A-D. Enhanced inflammation is associated with CCR2 antagonism by Compound 1 in the tumor microenvironment. (A, B) Ear tissues were collected from mice treated by Compound 1 (60 mg/kg) or vehicle on day 7. Representative images for HE sections and IHC staining with anti-F4/80 were shown for the ear tissues from Compound 1 and vehicle treated group. (C, D) Ears from day 7 were also analyzed by flow cytometry to quantify the numbers of the two major myeloid subpopulations in TME with antibodies for CD11b, F4/80 and Ly6G.\nas §2"}, "[6]": {"system": "cytokines and biomarkers produced from the TME", "experiment": "Quantitative RT-PCR of cytokines and biomarkers in ear tissues", "format": "in vivo, C57BL/6 mice", "procedure": "FIG. 5A-C. Compound 1 treatment altered the expression of cytokines and biomarkers produced from the TME. Quantitative RT-PCR was performed for the ear tissues collected on day 7. Genes that are involved in cancer inflammation and immunity crosstalk are selectively detected. Comparative expression is performed between the Compound 1 and vehicle treated groups. […] Gene expression values are normalized to endogenous expression of GAPDH (* p<05, ** p<0.01; n=3 mice per group).\nFIG. 6. Compound 1 treatment altered the expression of cytokines and biomarkers produced from the TME. Quantitative RT-PCR was performed for the ear tissues collected on day 7. Genes that are involved in immune suppression and anti-inflammation are selectively detected. Comparative expression is performed between the Compound 1 and vehicle treated groups. Gene expression values are normalized to endogenous expression of GAPDH (n=3 mice per group).\nQuantitative real-time PCR. RNA (<2 μg per sample) was converted into cDNA with the high-capacity first-strand cDNA Kit (Qiagen). Real-time PCR was performed on a StepOne Plus Real-time PCR system (Applied Biosystem, Carlsbad, CA). QPCR primer pairs were purchased from Integrated DNA technologies (Coralville, Iowa)."}, "[7]": {"experiment": "Plasma concentration of Compound 1 after daily oral dosing", "format": "in vivo, mice", "procedure": "as §3, §4"}, "F4/80+ macrophages": {"system": "F4/80+ macrophages", "experiment": "IHC staining of ear tissue with anti-F4/80", "format": "in vivo, C57BL/6 mice", "conditions": "day 7, 60 mg/kg oral daily", "procedure": "as §6\n(§7) H&E and Histoimmunochemistry. After mouse ear tumors were surgically removed at the ear base, the ear sample was cut into two parts along the long axis and placed in RNA later for RNA extraction or into 10% formalin for hematoxylin and eosin (H&E) staining or immunohistochemical staining with purified mouse antibodies (anti-CD8 and anti-F4/80 from Biolegend, San Diego, CA)."}, "MBL2 tumors [8]": {"system": "MBL2 tumors", "experiment": "Cervical draining lymph node size (lymph node metastasis) in DNFB-MBL2 model", "format": "in vivo, C57BL/6 mice", "conditions": "day 15, Compound 1 alone", "procedure": "as §5\nNext, we administrated neutralizing CD8 antibodies by IP injection concurrently with the Compound 1 treatment (FIG. 7B). […]"}, "[9]": {"experiment": "H&E histology and appearance of tumor-bearing ears", "format": "in vivo, C57BL/6 mice", "conditions": "day 7, 60 mg/kg", "procedure": "as §6, §7"}, "[10]": {"conditions": "ear tumors, treated two days after tumor implantation, 20 or 60 mg/kg oral"}, "[11]": {"conditions": "day 15, 20 or 60 mg/kg oral daily, vs untreated or vehicle"}, "[12]": {"conditions": "day 7, vs vehicle, normalized to GAPDH"}},
  "note": "“Also recorded” adds a separate entry of the source.",
  "data": [
    {"smiles": "O=C(NCC(=O)N1CC[C@H](N[C@H]2CC[C@@](O)(c3ccc(-c4ncccn4)cn3)CC2)C1)c1cccc(C(F)(F)F)c1", "note": "[PF-04136309]", "values": [
      {"measurement": "TAM infiltration", "setting": "[1]", "value": "reduction in TAM infiltration"},
      {"measurement": "anti-tumor immune response", "setting": "[1]", "value": "endogenous anti-tumor immune response"}
    ]},
    {"smiles": "C[C@H]1CN([C@@H]2CC[C@@](C(=O)N3COc4c(cc(C(F)(F)F)cc4C(F)(F)F)C3)(C3CC3)OC2)CC[C@@H]1c1cccc(C(=O)O)c1", "note": "[Compound 1]", "values": [
      {"measurement": "CD11b+/F4/80+ macrophages, absolute numbers in whole ears", "setting": "[2]; [10]", "value": "significantly decreased"},
      {"measurement": "CD11b+/F4/80+ macrophages, percentage values of live cells", "setting": "[2]; [10]", "value": "significantly decreased"},
      {"measurement": "macrophages in the skin (flow cytometry)", "setting": "[2]; oral administration for two days after tumor initiation, vehicle 17.7%", "value": "2.78 % of total leukocytes"},
      {"measurement": "tolerability / side effects", "setting": "[3]", "value": "well tolerated; also recorded: without side effects"},
      {"measurement": "weight changes", "setting": "[3]; ten days", "value": "≤ 20", "unit": "%"},
      {"measurement": "ear thickness", "setting": "MBL2 tumors [4]; [11]", "value": "significantly reduced"},
      {"measurement": "ear weight", "setting": "MBL2 tumors [4]; [11]", "value": "significantly reduced"},
      {"measurement": "tumor growth / tumor size", "setting": "MBL2 tumors [4]; single agent, two weeks of treatment, vs vehicle/control", "value": "smaller and sometimes nearly eradicated; also recorded: visible reduction in tumor growth; also recorded: inhibits tumor growth; also recorded: effectively delay the tumor growth, but was unable to eliminate the tumors"},
      {"measurement": "numbers of CD8+ T cells in the tumor/TME (IHC)", "setting": "CD8+ T cells", "value": "significantly larger numbers of CD8+ T cells; also recorded: markedly increased"},
      {"measurement": "accumulation of neutrophils in the TME", "setting": "[5]; after two daily doses", "value": "not blocked"},
      {"measurement": "relative abundance of neutrophils in the TME", "setting": "[5]; after two daily doses", "value": "increased"},
      {"measurement": "numbers of neutrophils / neutrophil-like cells in the TME", "setting": "[5]; one week (day 7) of treatment, 60 mg/kg oral daily, vs vehicle, 60 mg/kg", "value": "significantly larger numbers of neutrophils; also recorded: significant increase"},
      {"measurement": "IL-10 expression in ears", "setting": "[6]; day 7, vs controls", "value": "similarly expressed"},
      {"measurement": "TGF-beta expression in ears", "setting": "[6]; day 7, vs controls", "value": "similarly expressed"},
      {"measurement": "CCL2 expression in the TME", "setting": "[6]; day 7, vs vehicle", "value": "Upregulation"},
      {"measurement": "CCL7 expression in the TME", "setting": "[6]; day 7, vs vehicle", "value": "Upregulation"},
      {"measurement": "CXCL1/2 expression in the TME", "setting": "[6]; day 7, vs vehicle", "value": "noticeably increased"},
      {"measurement": "IL-1beta expression in ears", "setting": "[6]; day 7, vs vehicle", "value": "upregulated to variable extents"},
      {"measurement": "IL-6 expression in ears", "setting": "[6]; day 7, vs vehicle", "value": "upregulated to variable extents"},
      {"measurement": "IL-12 expression in ears", "setting": "[6]; day 7, vs vehicle", "value": "found to increase"},
      {"measurement": "IL-17a expression in ears", "setting": "[6]; day 7, vs vehicle", "value": "upregulated to variable extents"},
      {"measurement": "S100A8/9 expression in the TME", "setting": "[6]; day 7, vs vehicle", "value": "noticeably increased"},
      {"measurement": "granzyme B expression in ears", "setting": "[6]; day 7, vs vehicle", "value": "consistent upregulation"},
      {"measurement": "CXCL10 mRNA level in ears", "setting": "[6]; [12]", "value": "significantly increased"},
      {"measurement": "CXCL11 mRNA level in ears", "setting": "[6]; [12]", "value": "significantly increased"},
      {"measurement": "IFN-γ mRNA level in ears", "setting": "[6]; [12]", "value": "significantly increased"},
      {"measurement": "plasma concentration", "setting": "[7]; 20 or 60 mg/kg daily oral gavage for ten days, 24 hours after last dosing", "value": "correlated well to the feeding doses; also recorded: dose-dependently absorptive"},
      {"measurement": "oral bioavailability", "setting": "[7]; oral", "value": "orally-bioavailable"},
      {"measurement": "macrophages in the TME by IHC anti-F4/80", "setting": "F4/80+ macrophages", "value": "largely absent"},
      {"measurement": "cervical draining lymph node size", "setting": "MBL2 tumors [8]", "value": "reduction of cervical LN size"},
      {"measurement": "tumor cell necrosis", "setting": "[9]", "value": "results in tumor cell necrosis"}
    ]}
  ]
}
